The source of these data is US20090291983A1, “3-Oxoisoindoline-1-Carboxamide Derivatives as Analgesic Agents” (AstraZeneca AB, priority 2006, published 2009).

In this assay the target is T1, voltage-gated sodium channel of interest (NaV1.7) (Homo sapiens, UniProt Q15858).
T1 construct: Gene(s) encoding the full-length protein of the voltage-gated sodium channel of interest are cloned and expressed; expressed in transfected cells
In words: Whole-cell voltage clamp electrophysiology assay (automated patch-clamp). It counts as cell-based. The following applies: cells stably expressing the voltage-gated sodium channel. From the text:
Gene(s) encoding the full-length protein of the voltage-gated sodium channel of interest are cloned and expressed under a suitable promoter in a suitable cell line, as well known in the art. The so constructed stable cell lines are used in screening assays to identify suitable compounds active on voltage-gated sodium channels. Suitable screening assays are as follows.
Electrophysiological recordings of sodium currents in cells stably expressing the voltage-gated sodium channel of interest confirms activity and provides a functional measure of the potency of compounds that specifically affect such channels.
Electrophysiological studies was performed using automated patch-clamp electrophysiology platforms, like IonWorks HT, IonWorks Quattro, PatchXpress, or any other suitable platform. The cell line expressing the voltage-gated sodium channel of interest was plated in appropriate well tissue plates, as provided by the manufacturer of the automated patch-clamp platforms. Suitable extracellular and intracellular buffer for such experiments was applied according to the instructions given by the manufacturer of the automated patch-clamp platforms. Cells that express the voltage-gated sodium channel protein of interest was exposed to drugs through the pipetting system integrated in the platforms. A suitable voltage stimulus protocol was used to activate the voltage-gated sodium channel proteins of interest. A suitable stimulus protocol consisted of eight voltage pulses, each to −20 mV and 50 ms in length, and separated from each other by 330 ms intervals at a potential of −90 mV, or −65 mV.
Electrophysiological studies can also be performed using the whole cell configuration of the standard patch clamp technique as described in the literature (26). In this assay, cells that express the human voltage-gated sodium channel protein of interest are exposed to the drugs by conventional microperfusion systems and a suitable voltage stimulus protocol is used to activate the voltage-gated sodium channels.

T1 sequence (Q15858 whole entry): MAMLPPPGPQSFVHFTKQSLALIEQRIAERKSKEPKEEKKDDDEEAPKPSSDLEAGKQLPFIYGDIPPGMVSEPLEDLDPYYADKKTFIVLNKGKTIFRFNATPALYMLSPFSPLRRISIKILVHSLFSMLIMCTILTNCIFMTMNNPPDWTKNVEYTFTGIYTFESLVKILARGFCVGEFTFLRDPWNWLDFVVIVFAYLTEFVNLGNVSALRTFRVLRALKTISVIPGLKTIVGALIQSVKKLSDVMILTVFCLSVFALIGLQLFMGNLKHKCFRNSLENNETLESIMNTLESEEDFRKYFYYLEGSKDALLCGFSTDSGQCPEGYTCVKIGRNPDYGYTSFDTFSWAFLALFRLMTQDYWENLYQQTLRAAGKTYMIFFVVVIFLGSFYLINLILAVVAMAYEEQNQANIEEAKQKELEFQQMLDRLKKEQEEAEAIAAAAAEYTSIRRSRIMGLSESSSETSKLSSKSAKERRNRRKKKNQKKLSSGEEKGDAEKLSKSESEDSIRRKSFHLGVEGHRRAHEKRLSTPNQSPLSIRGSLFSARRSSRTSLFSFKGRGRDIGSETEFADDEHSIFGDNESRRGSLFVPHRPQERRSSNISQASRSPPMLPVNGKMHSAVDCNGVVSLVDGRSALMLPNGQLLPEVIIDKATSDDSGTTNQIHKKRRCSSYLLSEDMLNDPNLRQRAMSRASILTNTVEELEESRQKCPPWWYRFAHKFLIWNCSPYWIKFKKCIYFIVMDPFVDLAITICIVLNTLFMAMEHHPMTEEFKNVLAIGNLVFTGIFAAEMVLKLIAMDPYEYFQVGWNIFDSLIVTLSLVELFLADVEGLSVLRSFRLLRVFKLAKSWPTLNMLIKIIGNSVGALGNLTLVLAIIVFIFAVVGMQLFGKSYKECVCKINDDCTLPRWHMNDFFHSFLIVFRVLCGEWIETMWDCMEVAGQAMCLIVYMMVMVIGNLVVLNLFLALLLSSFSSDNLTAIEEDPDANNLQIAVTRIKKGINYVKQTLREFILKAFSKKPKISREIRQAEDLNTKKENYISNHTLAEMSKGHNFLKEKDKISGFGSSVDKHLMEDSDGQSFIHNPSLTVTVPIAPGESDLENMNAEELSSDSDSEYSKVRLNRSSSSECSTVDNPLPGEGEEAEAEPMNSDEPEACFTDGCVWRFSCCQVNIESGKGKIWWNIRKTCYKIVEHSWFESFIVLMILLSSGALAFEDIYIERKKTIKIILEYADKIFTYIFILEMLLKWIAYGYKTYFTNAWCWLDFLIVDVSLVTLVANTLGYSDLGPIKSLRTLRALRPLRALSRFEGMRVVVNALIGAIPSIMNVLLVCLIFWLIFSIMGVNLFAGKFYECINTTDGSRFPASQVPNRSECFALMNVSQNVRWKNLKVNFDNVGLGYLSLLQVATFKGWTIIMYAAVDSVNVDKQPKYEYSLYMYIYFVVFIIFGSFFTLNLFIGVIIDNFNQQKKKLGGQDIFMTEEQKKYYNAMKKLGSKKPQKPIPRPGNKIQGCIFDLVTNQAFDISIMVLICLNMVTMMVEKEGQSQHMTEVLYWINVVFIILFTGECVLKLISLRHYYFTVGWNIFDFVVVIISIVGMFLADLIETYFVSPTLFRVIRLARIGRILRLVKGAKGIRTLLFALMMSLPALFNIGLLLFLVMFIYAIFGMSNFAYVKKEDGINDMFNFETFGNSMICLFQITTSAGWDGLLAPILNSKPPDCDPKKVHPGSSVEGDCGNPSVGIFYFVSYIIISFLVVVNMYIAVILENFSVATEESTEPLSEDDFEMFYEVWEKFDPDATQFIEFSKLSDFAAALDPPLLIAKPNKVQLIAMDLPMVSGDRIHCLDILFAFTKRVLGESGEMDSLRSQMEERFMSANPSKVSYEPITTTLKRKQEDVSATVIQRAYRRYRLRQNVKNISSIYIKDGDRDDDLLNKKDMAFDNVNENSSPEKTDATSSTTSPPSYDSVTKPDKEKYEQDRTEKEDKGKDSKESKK

`COc1ccccc1CN1C(=O)c2ccccc2C1C(=O)Nc1c(C)cccc1Cl` (stereo not shown) [Example 2, N-(2-chloro-6-methylphenyl)-2-(2-methoxybenzyl)-3-oxoisoindoline-1-carboxamide] gave an IC50 of 316 nM.

For `Cc1cccc(C)c1NC(=O)C1c2ccccc2C(=O)N1CCOc1cc(C(F)(F)F)ccc1F` (stereo not shown) [Example 15, N-(2,6-dimethylphenyl)-2-{2-[2-fluoro-5-(trifluoromethyl)phenoxy]ethyl}-3-oxoisoindoline-1-carboxamide], the IC50 is 200 nM. Against the preceding molecule, the IC50 is about 1.6-fold lower.

For the molecule `COc1ccccc1CN1C(=O)c2ccccc2C1C(=O)Nc1c(Cl)cccc1Cl` (stereo not shown) [Example 16, N-(2,6-dichlorophenyl)-2-(2-methoxybenzyl)-3-oxoisoindoline-1-carboxamide], the IC50 was 251 nM. This IC50 and that of the molecule before are within 1.5-fold of each other.

With `COc1cc(F)ccc1CN1C(=O)c2ccccc2C1C(=O)Nc1c(C)cccc1C` (stereo not shown) [Example 38, N-(2,6-dimethylphenyl)-2-(4-fluoro-2-methoxybenzyl)-3-oxoisoindoline-1-carboxamide], the IC50 was 100 nM.

For orientation: IC50 means the midpoint of a concentration-inhibition curve. Read a high IC50 as weaker potency.
